Results taken from patent US12091425B2 (AMGEN INC., priority 2016, dated 2024).

How the values were obtained:
[1] = test system: OPM-2 human multiple myeloma cell line; experiment: Cell Viability Assay (OPM-2 10 FBS); assay type: cell-based; details: Homo sapiens, OPM-2, 16 h, OPM-2 cells, 16 h incubation, CellTiter-Glo
Method in brief: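 OPM-2 myeloma cells, 3000/well in medium with 10% FBS, exposed to serially diluted compounds for 16 h at 37° C./5% CO2. Viability read by CellTiter-Glo luminescence; IC50 from 4-parameter logistic fit.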

[2] = target: T1, Mcl-1/Bim interaction, recombinant human Mcl-1 (171-327) (Homo sapiens, UniProt Q07820); experiment: Cell free Mcl-1: Bim Affinity Assay (Mcl-1 HTRF); assay type: binding; details: TR-FRET, 0.1 nM Mcl-1 (171-327), 0.05 nM biotin-Bim (51-76)
T1 construct: made in house
Method in brief: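 Read-out is time-resolved FRET after overnight incubation, using a biotin-labelled peptide from human Bim (51-76) as the binding partner; IC50 was derived from competition curves.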

T1 sequence (Q07820 171-327): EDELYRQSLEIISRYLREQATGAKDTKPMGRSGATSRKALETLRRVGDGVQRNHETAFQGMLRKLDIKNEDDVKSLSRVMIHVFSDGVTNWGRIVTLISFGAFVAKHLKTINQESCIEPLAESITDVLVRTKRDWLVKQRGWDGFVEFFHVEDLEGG

SMILES | IC50 [1] [nM] | IC50 [2] [nM]
COCCO[C@H]1/C=C/[C@@H](C)C[C@@H](C)S(=O)(=O)NC(=O)c2ccc3c(c2)N(C[C@@H]2CC[C@H]21)C[C@@]1(CCCc2cc(Cl)ccc21)CO3 [Example 1020, (1S,3′R,6′R,7′S,8′E,10′S,12′R)-6-chloro-7′-(2-methoxyethoxy)-10′,12′-dimethyl-3,4-dihydro-2H,15′H-spiro[naphthalene-1,22′-[20]oxa[13]thia[1,14]diazatetracyclo[14.7.2.0^3,6.0^19,24]pentacosa [8,16,18,24]tetraen]-15′-one 13′,13′-dioxide] | 759 | 1.05
CO[C@H]1/C=C/[C@H](C)[C@H](C)[C@@H](C)S(=O)(=O)NC(=O)c2ccc3c(c2)N(C[C@@H]2CC[C@H]21)C[C@@]1(CCCc2cc(Cl)ccc21)CO3 [Example 1047, (1S,3′R,6′R,7′S,8′E,10′S,11′S,12′R)-6-chloro-7′-methoxy-10′,11′,12′-trimethyl-3,4-dihydro-2H,15′H-spiro[naphthalene-1,22′-[20]oxa[13]thia[1,14]diazatetracyclo[14.7.2.0^3,6.0^19,24]pentacosa [8,16,18,24]tetraen]-15′-one 13′,13′-dioxide] | 300 | 0.424
COCCO[C@H]1/C=C/[C@H](C)[C@H](C)[C@@H](C)S(=O)(=O)NC(=O)c2ccc3c(c2)N(C[C@@H]2CC[C@H]21)C[C@@]1(CCCc2cc(Cl)ccc21)CO3 [Example 1048, (1S,3′R,6′R,7′S,8′E,10′S,11′S,12′R)-6-chloro-7′-(2-methoxyethoxy)-10′,11′,12′-trimethyl-3,4-dihydro-2H,15′H-spiro[naphthalene-1,22′-[20]oxa[13]thia[1,14]diazatetracyclo[14.7.2.0^3,6.0^19,24]pentacosa [8,16,18,24]tetraen]-15′-one 13′,13′-dioxide] | 90.8 | 0.299
C[C@@H]1[C@@H](C)S(=O)(=O)NC(=O)c2ccc3c(c2)N(C[C@@H]2CC[C@H]2[C@@H](OCCN2CCOCC2)/C=C/[C@@H]1C)C[C@@]1(CCCc2cc(Cl)ccc21)CO3 [Example 1049, (1S,3′R,6′R,7′S,8′E,10′S,11′S,12′R)-6-chloro-10′,11′,12′-trimethyl-7′-(2-(4-morpholinyl)ethoxy)-3,4-dihydro-2H,15′H-spiro[naphthalene-1,22′-[20]oxa[13]thia[1,14]diazatetracyclo[14.7.2.0^3,6.0^19,24]pentacosa [8,16,18,24]tetraen]-15′-one 13′,13′-dioxide] | 126 | 0.264
C[C@@H]1[C@@H](C)S(=O)(=O)NC(=O)c2ccc3c(c2)N(C[C@@H]2CC[C@H]2[C@@H](OCC(=O)O)/C=C/[C@@H]1C)C[C@@]1(CCCc2cc(Cl)ccc21)CO3 [Example 1051, (((1S,3′R,6′R,7′S,8′E,10′S,11′S,12′R)-6-chloro-10′,11′,12′-trimethyl-13′,13′-dioxido-15′-oxo-3,4-dihydro-2H-spiro[naphthalene-1,22′-[20]oxa[13]thia[1,14]diazatetracyclo[14.7.2.0^3,6.0^19,24]pentacosa [8,16,18,24]tetraen]-7′-yl)oxy)acetic Acid] | 1900 | 0.0197
C[C@@H]1[C@@H](C)C[C@H](CC(=O)N(C)C)/C=C/[C@@H]2CC[C@H]2CN2C[C@@]3(CCCc4cc(Cl)ccc43)COc3ccc(cc32)C(=O)NS1(=O)=O [Example 1072, 2-((1S,3′R,6′S,7′E,9′R,11′S,12′R)-6-chloro-11′,12′-dimethyl-13′,13′-dioxido-15′-oxo-3,4-dihydro-2H-spiro[naphthalene-1,22′-[20]oxa[13]thia[1,14]diazatetracyclo[14.7.2.0^3,6.0^19,24]pentacosa [7,16,18,24]tetraen]-9′-yl)-N,N-dimethylacetamide] | 1510 | 1.36
CNC(=O)C[C@@H]1/C=C/[C@@H]2CC[C@H]2CN2C[C@@]3(CCCc4cc(Cl)ccc43)COc3ccc(cc32)C(=O)NS(=O)(=O)[C@H](C)[C@@H](C)C1 [Example 1073, 2-((1S,3′R,6′S,7′E,9′R,11′S,12′R)-6-chloro-11′,12′-dimethyl-13′,13′-dioxido-15′-oxo-3,4-dihydro-2H-spiro[naphthalene-1,22′-[20]oxa[13]thia[1,14]diazatetracyclo[14.7.2.0^3,6.0^19,24]pentacosa [7,16,18,24]tetraen]-9′-yl)-N-methylacetamide] | 1120 | 0.617
C[C@@H]1[C@@H](C)C[C@H](CC(=O)N2CC(O)C2)/C=C/[C@@H]2CC[C@H]2CN2C[C@@]3(CCCc4cc(Cl)ccc43)COc3ccc(cc32)C(=O)NS1(=O)=O [Example 1074, (1S,3′R,6′S,7′E,9′R,11′S,12′R)-6-chloro-9′-(2-(3-hydroxy-1-azetidinyl)-2-oxoethyl)-11′,12′-dimethyl-3,4-dihydro-2H,15′H-spiro[naphthalene-1,22′-[20]oxa[13]thia[1,14]diazatetracyclo[14.7.2.0^3,6.0^19,24]pentacosa [7,16,18,24]tetraen]-15′-one 13′,13′-dioxide] | 3850 | 0.988

Other lines, results leading:

IC50 [1] [nM] | IC50 [2] [nM] | SMILES
288 | 1.12 | CC[C@@H]1C[C@@H](C)/C=C/[C@H](OCCN2CCOCC2)[C@@H]2CC[C@H]2CN2C[C@@]3(CCCc4cc(Cl)ccc43)COc3ccc(cc32)C(=O)NS1(=O)=O [Example 1026, (1S,3′R,6′R,7′S,8′E,10′R,12′R)-6-chloro-12′-ethyl-10′-methyl-7′-(2-(4-morpholinyl)ethoxy)-3,4-dihydro-2H,15′H-spiro[naphthalene-1,22′-[20]oxa[13]thia[1,14]diazatetracyclo[14.7.2.0^3,6.0^19,24]pentacosa [8,16,18,24]tetraen]-15′-one 13′,13′-dioxide]
1140 | 0.294 | C[C@@H]1[C@@H](C)S(=O)(=O)NC(=O)c2ccc3c(c2)N(C[C@@H]2CC[C@H]2[C@@H](O)CC[C@@H]1C)C[C@@]1(CCCc2cc(Cl)ccc21)CO3 [Example 1045, (1S,3′R,6′R,7′S,10′S,11′S,12′R)-6-chloro-7′-hydroxy-10′,11′,12′-trimethyl-3,4-dihydro-2H,15′H-spiro[naphthalene-1,22′-[20]oxa[13]thia[1,14]diazatetracyclo[14.7.2.0^3,6.0^19,24]pentacosa [16,18,24]trien]-15′-one 13′,13′-dioxide]
2520 | 0.785 | C[C@H]1[C@H](C)CC[C@H](O)[C@@H]2CC[C@H]2CN2C[C@@]3(CCCc4cc(Cl)ccc43)COc3ccc(cc32)C(=O)NS(=O)(=O)[C@@H]1C [Example 1046, (1S,3′R,6′R,7′S,10′R,11′S,12′R)-6-chloro-7′-hydroxy-10′,11′,12′-trimethyl-3,4-dihydro-2H,15′H-spiro[naphthalene-1,22′-[20]oxa[13]thia[1,14]diazatetracyclo[14.7.2.0^3,6.0^19,24]pentacosa [16,18,24]trien]-15′-one 13′,13′-dioxide]
288 | 0.589 | CCOC(=O)CO[C@H]1/C=C/[C@H](C)[C@H](C)[C@@H](C)S(=O)(=O)NC(=O)c2ccc3c(c2)N(C[C@@H]2CC[C@H]21)C[C@@]1(CCCc2cc(Cl)ccc21)CO3 [Example 1050, ethyl (((1S,3′R,6′R,7′S,8′E,10′S,11′S,12′R)-6-chloro-10′,11′,12′-trimethyl-13′,13′-dioxido-15′-oxo-3,4-dihydro-2H-spiro[naphthalene-1,22′-[20]oxa[13]thia[1,14]diazatetracyclo[14.7.2.0^3,6.0^19,24]pentacosa [8,16,18,24]tetraen]-7′-yl)oxy)acetate]
95.7 | 0.11 | C[C@@H]1[C@@H](C)S(=O)(=O)NC(=O)c2ccc3c(c2)N(C[C@@H]2CC[C@H]2[C@@H](OCC(=O)N(C)C)/C=C/[C@@H]1C)C[C@@]1(CCCc2cc(Cl)ccc21)CO3 [Example 1052, 2-(((1S,3′R,6′R,7′S,8′E,10′S,11′S,12′R)-6-chloro-10′,11′,12′-trimethyl-13′,13′-dioxido-15′-oxo-3,4-dihydro-2H-spiro[naphthalene-1,22′-[20]oxa[13]thia[1,14]diazatetracyclo[14.7.2.0^3,6.0^19,24]pentacosa [8,16,18,24]tetraen]-7′-yl)oxy)-N,N-dimethylacetamide]
1480 | 1.19 | CO[C@H]1/C=C/[C@@H](C)[C@H](C)[C@@H](C)S(=O)(=O)NC(=O)c2ccc3c(c2)N(C[C@@H]2CC[C@H]21)C[C@@]1(CCCc2cc(Cl)ccc21)CO3 [Example 1053, (1S,3′R,6′R,7′S,8′E,10′R,11′S,12′R)-6-chloro-7′-methoxy-10′,11′,12′-trimethyl-3,4-dihydro-2H,15′H-spiro[naphthalene-1,22′-[20]oxa[13]thia[1,14]diazatetracyclo[14.7.2.0^3,6.0^19,24]pentacosa [8,16,18,24]tetraen]-15′-one 13′,13′-dioxide]
1230 | 1.07 | CC(=O)O[C@@H]1/C=C/C[C@H](C)[C@@H](C)S(=O)(=O)NC(=O)c2ccc3c(c2)N(C[C@@H]2CC[C@H]21)C[C@@]1(CCCc2cc(Cl)ccc21)CO3 [Example 1070, (1S,3′R,6′R,7′R,8′E,11′S,12′R)-6-chloro-11′,12′-dimethyl-13′,13′-dioxido-15′-oxo-3,4-dihydro-2H-spiro[naphthalene-1,22′-[20]oxa[13]thia[1,14]diazatetracyclo[14.7.2.0^3,6.0^19,24]pentacosa [8,16,18,24]tetraen]-7′-yl acetate]
2150 | 6.15 | C[C@@H]1[C@@H](C)C[C@H](CC#N)/C=C/[C@@H]2CC[C@H]2CN2C[C@@]3(CCCc4cc(Cl)ccc43)COc3ccc(cc32)C(=O)NS1(=O)=O [Example 1075, ((1S,3′R,6′S,7′E,9′R,11′S,12′R)-6-chloro-11′,12′-dimethyl-13′,13′-dioxido-15′-oxo-3,4-dihydro-2H-spiro[naphthalene-1,22′-[20]oxa[13]thia[1,14]diazatetracyclo[14.7.2.0^3,6.0^19,24]pentacosa [7,16,18,24]tetraen]-9′-yl)acetonitrile]
